Assays:
cannabinoid receptors [1] = assay: Mouse tetrad model, antagonistic effect against Win 55212-2; assay type: in vivo, Male NMRI mice; conditions: 5 mg/kg i.v. prior to Win 55212-2 in a dose of 1,25mg/kg i.v., mice
Description: (§1) Substances with affinity for cannabinoid receptors are known to produce a wide range of pharmacological effects. It is also known that intravenous administration of a substance with affinity for cannabinoid receptors in mice produces analgesia , hypothermia, sedation and catalepsy. Individually, none of these effects can be considered as proof that a tested substance has affinity for cannabinoid-receptors, since all of these effects are common for various classes of centrally active agents. However, substances, which show all of these effects, i.e. substances that are active in this so-called tetrad model are considered to have affinity for the cannabinoid receptors. It has further been shown that cannabinoid receptor antagonists are higly effective in blocking the effects of a cannabinoid agonist in the mouse tetrad model.
(§2) The tetrad model is described, for example, in the publication of A. C. Howlett et al, International Union of Pharmacology XXVII. Classification of Cannabinoid Receptors, Pharmacol Rev 54, 161-202 , 2002 and David R. Compton et al., "In-vivo Characterization of a Specific Cannabinoid Receptor Antagonist (SR141716A) :Inhibition of Tetrahydrocannbinol- induced Responses and Apparent Agonist Activity", J. Pharmacol. Exp. Ther. 277 , 2, 586-594, 1996. The corresponding parts of the description are hereby incorporated by reference. […]
(§3) Before testing in the behavioral procedures given below, mice are acclimatized to the experimental setting. Pre-Treatment control values are determined for analgesia hot plate latency (in seconds), rectal temperature, sedation and catalepsy.
In order to determine the antagonistic activity the identical procedure is used as for the determination of the agonistic effects, but with the difference that the substance to be evaluated for its antagonistic activity is injectected 5 minutes before the intravenous injection of 1.25 mg/kg Win-55,212 a known cannabinoid-receptor agonist.
(§4) The hot plate analgesia is determined according to the method described in Woolfe D. et al. "The evaluation of analgesic action of pethidine hydrochloride (Demerol)", J. Pharmacol. Exp. Ther. 80, 300-307,1944. […]
(§5) The mice are placed on a hot plate (Harvard Analgesimeter) at 55 ± 0.5 °C until they show a painful sensation by licking their paws or jumping and the time for these sensations to occur is recorded. This reading is considered the basal value (B). […]
(§6) Fifteen minuts after the administration of the substance to be tested, the mice are again placed on the hot plate and the afore described procedure is repeated. This period is called the post-treatment reading (PT).
(§7) The degree of analgesia is calculated from the formula : %MPE of Analgesia = (PT-B)/(PC-B) × 100 [formula] […]

cannabinoid receptors [2] = assay: Mouse tetrad model, agonistic effect; assay type: in vivo, Male NMRI mice; conditions: 5 mg/kg i.v., mice
Description: as §1, §2, §3
In order to determine the agonistic activty of the substance to be tested, the mice are injected intravenously with the substance to be tested or the vehicle alone. 15 minutes after injection, latency in hot plate analgesia is measured. Rectal temperature, sedation and catalepsy are measured 20 minutes after injection.
as §4, §5, §6, §7

Which results are given for `O=C(NN1CCCCC1)C1=NN(c2ccc(Cl)cc2Cl)C(c2ccc(Cl)cc2)C1` (centres unmarked) [Example 1, N-piperidinyl-5-(4-chlorophenyl)-1-(2,4-dichlorophenyl)-4,5-dihydro-1H-pyrazole-3-carboxamide]?
Antagonistic Effect A: Hot-Plate test (cannabinoid receptors [1]): 74; Antagonistic Effect B: Hypothermia (cannabinoid receptors [1]): 100; Antagonistic Effect C: Catalepsy (cannabinoid receptors [1]): 100; Antagonistic Effect D: Sedation (cannabinoid receptors [1]): 100; Agonistic effect A: Hot-Plate test (cannabinoid receptors [2]): 0; Agonistic effect B: Hypothermia (cannabinoid receptors [2]): 0; Agonistic effect C: Catalepsy (cannabinoid receptors [2]): 0; Agonistic effect D: Sedation (cannabinoid receptors [2]): 0

— patent EP1745783A1, “Substituted pyrazoline compounds, their preparation and use as medicaments” (Laboratorios del Dr. Esteve S.A., priority 2005, dated 2007)
